Assay [1] concerns the target T1, Interstitial collagenase (Homo sapiens) (UniProt P03956).
T1 sequence (whole entry): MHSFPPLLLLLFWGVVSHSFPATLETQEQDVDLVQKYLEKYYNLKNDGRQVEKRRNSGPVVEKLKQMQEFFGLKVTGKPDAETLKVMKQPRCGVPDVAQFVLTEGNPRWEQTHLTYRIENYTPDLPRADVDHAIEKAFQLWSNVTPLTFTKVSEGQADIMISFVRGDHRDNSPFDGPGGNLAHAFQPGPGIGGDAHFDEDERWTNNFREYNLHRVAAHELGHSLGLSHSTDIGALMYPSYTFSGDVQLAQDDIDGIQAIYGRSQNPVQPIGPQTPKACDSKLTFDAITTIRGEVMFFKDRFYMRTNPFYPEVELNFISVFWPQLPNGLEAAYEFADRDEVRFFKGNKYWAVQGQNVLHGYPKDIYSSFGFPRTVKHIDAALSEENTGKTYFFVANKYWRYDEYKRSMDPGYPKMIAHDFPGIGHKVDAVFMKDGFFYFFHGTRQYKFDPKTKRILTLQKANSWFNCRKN
The assay can be described thus: Inhibition of Matrix metalloprotease-1 at 1 uM.

Assay [2] concerns the target T2, Matrix metalloproteinase-9 (Homo sapiens, UniProt P14780). The assay can be described thus: Inhibition of Matrix metalloprotease-9 at 10 uM.
Another assay concerns the target T3, Interstitial collagenase (Homo sapiens, UniProt P03956).
T3 sequence (P03956 whole entry): T1 sequence (whole entry)
The assay can be described thus: Inhibition of Matrix metalloprotease-1.

For assay [3], the target named is T2, Matrix metalloproteinase-9. Kind of assay: Inhibition of Matrix metalloprotease-9.
Assay [4] addresses T2, Matrix metalloproteinase-9. The assay can be described thus: Inhibition of Matrix metalloprotease-9 at 0.3 uM.
For assay [5], the target named is T4, Collagenase 3 (Homo sapiens, UniProt P45452). Kind of assay: Inhibition of Matrix metalloprotease-13 at 0.3 uM.
For assay [6], the target named is T4, Collagenase 3. Kind of assay: Inhibition of Matrix metalloprotease-13.
The subject of assay [7] is Rattus norvegicus. The assay can be described thus: Inhibitory activity against MMP-9 in rat dialysis implant bioactivity model at oral dose of 100 mg/kg; In active. It counts as functional, organism-based. Also on record: dose 100 mg/kg.
The subject of assay [8] is Rattus norvegicus. The assay can be described thus: In vivo inhibitory activity against Matrix metalloprotease-13 in rat dialysis implant bioactivity model at a concentration of 50 mg/kg; Not active. It counts as functional, organism-based. Also on record: dose 50 mg/kg.

Structures are written as SMILES. Calls of active or inactive are those of the source. No cut-off for these calls is given here.

T2 sequence (P14780 whole entry): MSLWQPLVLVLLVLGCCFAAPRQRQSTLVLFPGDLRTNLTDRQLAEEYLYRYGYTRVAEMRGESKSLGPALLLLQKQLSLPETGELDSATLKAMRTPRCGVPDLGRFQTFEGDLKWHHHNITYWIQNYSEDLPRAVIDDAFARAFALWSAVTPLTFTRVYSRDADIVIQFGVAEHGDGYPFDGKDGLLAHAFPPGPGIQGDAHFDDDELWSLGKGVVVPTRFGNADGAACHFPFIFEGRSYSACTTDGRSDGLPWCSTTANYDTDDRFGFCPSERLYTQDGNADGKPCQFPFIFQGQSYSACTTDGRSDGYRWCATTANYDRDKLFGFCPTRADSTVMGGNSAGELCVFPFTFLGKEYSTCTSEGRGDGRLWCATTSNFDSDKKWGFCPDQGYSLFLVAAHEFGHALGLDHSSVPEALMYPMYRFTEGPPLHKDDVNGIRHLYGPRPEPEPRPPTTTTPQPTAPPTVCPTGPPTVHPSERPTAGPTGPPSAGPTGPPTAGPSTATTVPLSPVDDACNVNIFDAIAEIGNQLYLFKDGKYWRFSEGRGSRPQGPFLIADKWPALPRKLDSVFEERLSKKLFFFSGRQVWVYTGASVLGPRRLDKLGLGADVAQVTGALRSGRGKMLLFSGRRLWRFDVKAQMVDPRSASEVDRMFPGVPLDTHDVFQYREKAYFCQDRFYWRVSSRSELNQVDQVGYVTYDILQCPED

Regarding `COc1ccc(S(=O)(=O)N(Cc2ccccc2)c2cscc2C(=O)NO)cc1`, the inhibition in [1] was 40%; in [2], 67%.

For `COc1ccc(S(=O)(=O)N(Cc2ccccc2)C2CCCC[C@H]2C(=O)NO)cc1` (some centres not stated), the IC50 against Interstitial collagenase stood at 0.174 µM; in assay [3], 0.181 µM.

On to `COc1ccc(S(=O)(=O)N(Cc2ccccc2)c2ccsc2C(=O)NO)cc1`, for which the values for the inhibition in [1] and in [2] were 19% and 57%, respectively.

Take `C#Cc1scc(C(=O)NO)c1N(Cc1ccccc1)S(=O)(=O)c1ccc(OC)cc1`: the inhibition was 49% in [1], 38% in assay [4] and 35% against Collagenase 3 [5].

At Collagenase 3 [6], `COc1ccc(S(=O)(=O)N(Cc2ccccc2)c2c(C(=O)NO)csc2Br)cc1` had a half-maximal inhibitory concentration (IC50) of 0.427 µM.

On to `COc1ccc(S(=O)(=O)N(Cc2cccnc2)c2c(C(=O)NO)csc2Br)cc1`, for which the inhibition in assay [1] was 50%. Further, in the assay with Rattus norvegicus [7], the outcome was inactive.

On to `COc1ccc(S(=O)(=O)N(Cc2ccccc2)c2c(C(=O)NO)cc(OC)nc2OC)cc1`, for which, in the assay on Rattus norvegicus [8], the result was inactive.

On to `COc1ccc(S(=O)(=O)N(Cc2ccccc2)[C@H]2CCCC[C@H]2C(=O)NO)cc1`, for which the results for the half-inhibitory concentration (IC50) (against Interstitial collagenase; in assay [3]) were 0.361 µM and 0.318 µM, respectively.

Consider `COc1ccc(S(=O)(=O)N(Cc2ccccc2)c2c(C(=O)NO)cnn2C)cc1`, for which, in assay [1], the inhibition was determined as 22%. The same compound came in with an IC50 in [3] of 0.9 µM.

(Values after ChEMBL document CHEMBL1133790, “Heteroaryl and cycloalkyl sulfonamide hydroxamic acid inhibitors of matrix metalloproteinases” (Bioorg Med Chem Lett, 2001).)
